# Source: PubChem BioAssay (NCI)
#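 Grown in 96-well plates, cells were treated for 48 hours with each compound at five concentrations. Insufficient inhibition: endpoint recorded as highest concentration tested. At the GI50, growth is halved. The concentration for full growth arrest is given as TGI.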
# Legend:
# Experiment in all cases: NCI tumour cell line growth inhibition, 48 h
# UACC-257 melanoma = system: UACC-257 melanoma
# TK-10 renal = system: TK-10 renal
# SF-268 CNS = system: SF-268 CNS
# UACC-62 melanoma = system: UACC-62 melanoma
# K-562 leukemia = system: K-562 leukemia
# A498 renal = system: A498 renal
# HCC-2998 colon = system: HCC-2998 colon
# SK-MEL-2 melanoma = system: SK-MEL-2 melanoma
# EKVX NSCLC = system: EKVX NSCLC
# MDA-MB-231 breast = system: MDA-MB-231 breast
Compound,TGI (UACC-257 melanoma) [µM],TGI (TK-10 renal) [µM],TGI (SF-268 CNS) [µM],TGI (UACC-62 melanoma) [µM],TGI (K-562 leukemia) [µM],TGI (A498 renal) [µM],TGI (HCC-2998 colon) [µM],TGI (SK-MEL-2 melanoma) [µM],TGI (EKVX NSCLC) [µM],GI50 (UACC-257 melanoma) [µM],GI50 (TK-10 renal) [µM],GI50 (SF-268 CNS) [µM],GI50 (UACC-62 melanoma) [µM],GI50 (MDA-MB-231 breast) [µM],TGI (MDA-MB-231 breast) [µM],GI50 (K-562 leukemia) [µM],GI50 (SK-MEL-2 melanoma) [µM],GI50 (EKVX NSCLC) [µM],GI50 (HCC-2998 colon) [µM],GI50 (A498 renal) [µM]
COc1ccc(NC(=O)CC(=O)n2nc(C)c(N=Nc3ccccc3C(=O)O)c2C)cc1,> 100,> 100,> 100,> 100,> 100,> 100,> 100,> 100,> 100,,,,,,,,,,,
C[C@H](CCC1SC1(C)C)C1CCC2(C)C3=C(CC[C@]12C)[C@@]1(C)CC[C@H](O)C(C)(C)C1CC3 (stereo partly specified),> 100,> 100,> 100,> 100,> 100,> 100,> 100,> 100,> 100,,,,,,,,,,,
CCCCOC1OC(COC(=O)C(C)C)C(OC(=O)C(C)C)C(O)C1OC1OC(C)C(OC(=O)CCC)C(OC(=O)C(C)C)C1O (stereo unspecified),32.5,25.9,29,24.8,14.3,,,> 100,25.2,18.5,13.2,12.2,12.3,10.1,21.7,3.09,36.2,12.5,,
CC(=O)NC(C=O)C(O[C@H](C)C(=O)NC(C)C(=O)NC(CCC(N)=O)C(=O)OCc1ccccc1)C(O)C(O)COC(=O)CCNc1c2ccccc2nc2cccc([N+](=O)[O-])c12 (stereo partly specified),20.3,53.6,5.11,10.5,9.62,> 100,2.94,3.05,22.3,,,,,,,,,,,
COC1CC(N)C(O)C(C)O1 (stereo unspecified),> 100,,> 100,> 100,> 100,> 100,> 100,,> 100,,,,,,> 100,,,,,
Cc1nc2ccccc2nc1N=Nc1ccccc1,73.4,> 100,> 100,35.2,> 100,,> 100,61.3,> 100,25.2,48.8,22.7,14.2,16.2,69.1,25.7,24,10.9,37,
N#CC1=C(O)NC(O)=C(C#N)C1c1ccc(C2C(C#N)=C(O)NC(O)=C2C#N)cc1,> 100,> 100,> 100,> 100,> 100,> 100,> 100,> 100,> 100,,,,,,,,,,,
O=C1CN(c2cccc(Cl)c2)C(=O)CN1NCNN1CC(=O)N(c2cccc(Cl)c2)CC1=O,> 100,> 100,> 100,> 100,,> 100,> 100,,> 100,,,,,,,,,,,
NC(=S)N1N=C2c3ccccc3CC[C@H]2[C@@H]1c1ccc(Cl)cc1,95,> 100,> 100,> 100,82.5,> 100,> 100,61.1,> 100,,,,,,,,,,,
Cl.Fc1c[c-]c(-c2ccccn2)c(F)c1.[Pt].c1ccc([PH+](C[PH+](c2ccccc2)c2ccccc2)c2ccccc2)cc1,0.829,1.43,,0.511,0.573,0.721,,,1.05,0.269,0.274,,0.199,,,0.0483,,0.261,,0.239
